Laboratory results from article PMC4827351 (Chemical Science, 2015).
“Also recorded” adds a separate entry of the source.

Assays:
[1] = test system: TPCK-treated trypsin (Worthington); assay: 0.01 mg mL^–1 trypsin (1 : 100 trypsin : proHD6 (w/w)) in 100 mM Tris–HCl, 20 mM CaCl2, pH 8.0; conditions: room temperature, up to 120 min
[2] = intestinal luminal aspirates obtained by endoscopy (ileal fluid); conditions: human
[3] = molecular target: the molecule itself; assay: AUC; sedimentation equilibrium; proHD6 30, 60 and 120 μM in 10 mM sodium phosphate pH 7.4, 30 000, 36 000 and 42 000 rpm, 20 °C, global fit with SEDPHAT; monomer to dimer

AFTCHCRRSCYSTEYSYGTCTVMGINHRFCCL
not cleaved [1]: resistant to trypsin-catalyzed degradation

EPLQAEDDPLQAKAYEADAQEQRGANDQDFAVSFAEDASSSLRALGSTRAFTCHCRRSCYSTEYSYGTCTVMGINHRFCCL
cleaved bond [1]: Arg68-Ala69, 1 min
fragment found [1]: EPLQAEDDPLQAK, 1 min; also recorded: GANDQDFAVSFAEDASSSLR, 1 min
cleaved bond [2]: Arg68-Ala69

B1: proHD6 (81-residue propeptide of human α-defensin 6) (natural protein, UniProt Q01524 20-100, looked up)
chain: EPLQAEDDPLQAKAYEADAQEQRGANDQDFAVSFAEDASSSLRALGSTRAFTCHCRRSCYSTEYSYGTCTVMGINHRFCCL
notes: N-terminus EPLQ; Oxidatively folded regioisomer with the three native disulfide bonds (Cys4-Cys31, Cys6-Cys20, Cys10-Cys30, numbers count on mature HD6); Ulp1 cleavage leaves the native 81-residue peptide; also called HD6 propeptide; native proHD6; source: E. coli BL21(DE3) as His6-SUMO-proHD6, purified (Ni-NTA), Ulp1 digestion, reduction, oxidative folding, preparative HPLC; not shown: His6, …
stoichiometry N [3]: 2
